One test addresses T1, HDAC2 (Homo sapiens, UniProt Q92769).
T1 construct: purchased Reaction Biology Corporation (assay run at the CRO)
As to the kind of experiment: HDAC isoform inhibition assay (Reaction Biology). It is filed as biochemical. Particulars: generated at Reaction Biology Corporation. The method, then: (§1) Dose-response studies for HDAC isoforms were conducted at Reaction Biology Corporation. All assays are based on the same principle of a two-step reaction: first, the substrate with the acetylated lysine side chain is incubated with a sample containing HDAC enzyme, to produce the deacetylated products, which are then digested in the second step by the addition of the developer to produce the fluorescent signal proportional to the amount of deacetylated substrates. Recombinant proteins HDAC1, HDAC2, HDAC3, HDAC4, HDAC5, HDAC6, HDAC7, HDAC8, HDAC9, and HDAC10 were incubated with a test compound for 5min, and then the fluorophore-conjugated substrate was added to the wells and incubated for 30 min to 2 h for different HDACs. Reactions were performed in assay buffer (50 mM Tris-HCl, pH 8.0, 137 mM NaCl, 2.7 mM KCl, 1 mM MgCl2, 1 mg/mL BSA, 1% DMSO, pH 7.4) and fluorescence measurements were obtained approximately every 20 min for an hour using an Envision, Perkin-Elmer plate reader (Excitation 360 nm/Emission 460 nm). IC50 values and curve fits were obtained using (GraphPad Prism Software, Inc.).

In the next test the target is T2, HDAC5 (Homo sapiens, UniProt Q9UQL6).
T2 construct: purchased Reaction Biology Corporation (assay run at the CRO)
T2 sequence (Q9UQL6 whole entry): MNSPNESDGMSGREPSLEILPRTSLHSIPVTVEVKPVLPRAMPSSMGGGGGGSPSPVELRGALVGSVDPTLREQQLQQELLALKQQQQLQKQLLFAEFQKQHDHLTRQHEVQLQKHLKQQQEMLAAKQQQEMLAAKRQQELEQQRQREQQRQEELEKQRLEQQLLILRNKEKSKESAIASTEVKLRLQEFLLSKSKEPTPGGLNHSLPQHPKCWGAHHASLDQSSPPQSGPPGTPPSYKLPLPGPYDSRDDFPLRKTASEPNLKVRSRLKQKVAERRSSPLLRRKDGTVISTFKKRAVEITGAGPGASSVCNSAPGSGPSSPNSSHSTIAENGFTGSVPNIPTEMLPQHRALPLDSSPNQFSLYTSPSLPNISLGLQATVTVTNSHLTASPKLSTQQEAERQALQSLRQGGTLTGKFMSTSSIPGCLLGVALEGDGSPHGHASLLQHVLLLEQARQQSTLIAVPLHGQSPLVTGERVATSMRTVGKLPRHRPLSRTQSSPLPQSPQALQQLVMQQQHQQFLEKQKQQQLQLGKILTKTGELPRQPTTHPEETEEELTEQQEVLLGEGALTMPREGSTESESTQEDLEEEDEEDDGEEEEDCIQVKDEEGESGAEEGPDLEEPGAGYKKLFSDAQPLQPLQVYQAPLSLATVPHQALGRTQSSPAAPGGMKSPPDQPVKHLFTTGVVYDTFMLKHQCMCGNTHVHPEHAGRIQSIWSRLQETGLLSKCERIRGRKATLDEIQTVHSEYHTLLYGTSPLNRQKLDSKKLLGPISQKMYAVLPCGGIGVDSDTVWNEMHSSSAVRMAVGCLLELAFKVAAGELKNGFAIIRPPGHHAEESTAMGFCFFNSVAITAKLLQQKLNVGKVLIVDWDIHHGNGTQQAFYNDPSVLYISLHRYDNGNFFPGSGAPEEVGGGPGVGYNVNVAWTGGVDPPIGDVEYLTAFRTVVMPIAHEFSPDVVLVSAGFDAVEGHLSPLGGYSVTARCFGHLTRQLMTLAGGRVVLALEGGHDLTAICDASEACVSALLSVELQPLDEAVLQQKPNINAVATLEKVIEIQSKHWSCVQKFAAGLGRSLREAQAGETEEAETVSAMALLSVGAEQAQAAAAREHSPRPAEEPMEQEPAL
As to the kind of experiment: HDAC isoform inhibition assay (Reaction Biology). Format: biochemical. Particulars: generated at Reaction Biology Corporation. How it is done:
as §1

A further test deals with T3, HDAC7 (Homo sapiens, UniProt Q8WUI4).
T3 construct: purchased Reaction Biology Corporation (assay run at the CRO)
T3 sequence (Q8WUI4 whole entry): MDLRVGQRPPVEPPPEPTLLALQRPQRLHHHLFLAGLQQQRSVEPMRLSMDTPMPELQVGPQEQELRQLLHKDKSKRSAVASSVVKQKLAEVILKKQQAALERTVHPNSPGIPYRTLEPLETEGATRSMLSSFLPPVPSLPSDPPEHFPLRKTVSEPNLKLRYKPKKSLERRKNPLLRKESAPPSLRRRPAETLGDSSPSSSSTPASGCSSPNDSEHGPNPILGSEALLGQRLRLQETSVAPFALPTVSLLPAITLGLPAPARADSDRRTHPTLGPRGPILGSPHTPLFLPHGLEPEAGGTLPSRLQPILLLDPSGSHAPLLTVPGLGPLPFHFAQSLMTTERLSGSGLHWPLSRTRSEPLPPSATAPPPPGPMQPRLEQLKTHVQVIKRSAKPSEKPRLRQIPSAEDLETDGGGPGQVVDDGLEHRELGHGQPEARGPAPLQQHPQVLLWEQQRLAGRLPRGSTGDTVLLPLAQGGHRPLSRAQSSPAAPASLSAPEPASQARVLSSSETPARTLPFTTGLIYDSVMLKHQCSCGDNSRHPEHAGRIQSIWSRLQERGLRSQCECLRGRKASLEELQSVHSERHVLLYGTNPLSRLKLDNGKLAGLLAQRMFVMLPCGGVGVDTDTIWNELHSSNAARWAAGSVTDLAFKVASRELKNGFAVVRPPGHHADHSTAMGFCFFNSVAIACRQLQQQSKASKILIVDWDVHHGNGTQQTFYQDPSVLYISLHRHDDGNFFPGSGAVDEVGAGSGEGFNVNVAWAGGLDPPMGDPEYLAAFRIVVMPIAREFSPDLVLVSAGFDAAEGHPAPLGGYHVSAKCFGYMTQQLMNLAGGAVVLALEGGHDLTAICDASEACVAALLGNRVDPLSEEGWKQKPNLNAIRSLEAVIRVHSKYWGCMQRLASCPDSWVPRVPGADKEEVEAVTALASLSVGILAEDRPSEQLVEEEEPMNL
Kind of test: HDAC isoform inhibition assay (Reaction Biology). It is filed as biochemical. The conditions noted are these: generated at Reaction Biology Corporation. The method, then: as §1

A further test deals with T4, HDAC9 (Homo sapiens, UniProt Q9UKV0).
T4 construct: purchased Reaction Biology Corporation (assay run at the CRO)
T4 sequence (Q9UKV0 whole entry): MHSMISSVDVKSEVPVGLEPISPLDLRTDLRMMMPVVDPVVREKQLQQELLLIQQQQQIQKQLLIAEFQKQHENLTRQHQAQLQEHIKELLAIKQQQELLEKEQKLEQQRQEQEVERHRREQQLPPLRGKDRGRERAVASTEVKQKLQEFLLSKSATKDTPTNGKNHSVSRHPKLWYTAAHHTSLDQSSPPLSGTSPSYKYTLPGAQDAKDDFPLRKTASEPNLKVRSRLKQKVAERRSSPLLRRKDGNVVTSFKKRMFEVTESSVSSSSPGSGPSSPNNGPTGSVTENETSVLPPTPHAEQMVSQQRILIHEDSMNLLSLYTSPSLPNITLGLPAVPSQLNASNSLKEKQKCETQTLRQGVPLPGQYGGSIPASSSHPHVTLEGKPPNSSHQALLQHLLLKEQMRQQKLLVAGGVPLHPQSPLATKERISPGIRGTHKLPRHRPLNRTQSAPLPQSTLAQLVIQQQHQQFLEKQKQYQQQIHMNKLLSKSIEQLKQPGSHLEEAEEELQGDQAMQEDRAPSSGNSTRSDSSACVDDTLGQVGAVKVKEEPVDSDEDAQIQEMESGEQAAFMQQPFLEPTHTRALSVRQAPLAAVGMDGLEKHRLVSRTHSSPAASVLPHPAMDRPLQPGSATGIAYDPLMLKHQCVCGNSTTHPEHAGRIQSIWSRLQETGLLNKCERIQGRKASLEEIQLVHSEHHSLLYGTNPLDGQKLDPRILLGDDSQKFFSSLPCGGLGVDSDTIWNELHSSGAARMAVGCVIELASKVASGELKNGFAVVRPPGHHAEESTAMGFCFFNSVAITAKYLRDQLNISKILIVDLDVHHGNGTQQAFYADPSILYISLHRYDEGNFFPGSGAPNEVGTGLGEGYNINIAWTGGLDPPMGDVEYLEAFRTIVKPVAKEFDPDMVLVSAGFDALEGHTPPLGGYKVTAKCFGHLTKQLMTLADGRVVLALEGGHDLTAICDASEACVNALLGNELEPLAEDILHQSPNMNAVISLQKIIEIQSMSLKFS
As to the kind of experiment: HDAC isoform inhibition assay (Reaction Biology). Format: biochemical. The conditions noted are these: generated at Reaction Biology Corporation. How it is done: as §1

The next test has as its system remaining HDACs. As to the kind of experiment: HDAC panel HDAC1 to HDAC10, remaining HDACs (other than HDAC6 and HDAC8). Format: biochemical. Particulars: about […] to >10 μM, read-out: IC50 against the remaining HDACs. The method, then: as §1
The test system of another test is Colo-289. As to the kind of experiment: Cell proliferation assay (Alamar Blue). It is filed as cell-based. Particulars: Colo-289, Melanoma, 144 h. How it is done:
(§2) Cells were seeded in NUNC 96-well tissue culture plates (Life Technologies) in […] culture medium and incubated at 37°C/ 5% CO2 to adhere to plastic for 18–24 h. […] One set of plates (designated for the 144 h read out) were centrifuged at low speed for 30 seconds, and respective compounds were replenished in fresh media and incubated for another 68–72 h at 37°C/ 5% CO2. […] The inhibition curve was then fitted by plotting % inhibition against log concentration in GraphPad Prism 5.0 (GraphPad Software, Inc.) and the GI50 value of compound was determined. Data are representative of at least two independent experiments.

A further test has as its system G362. Kind of test: Cell proliferation assay (Alamar Blue). It is filed as cell-based. Particulars: G362, Melanoma, 144 h. How it is done: as §2
The subject of another test is H1341. As to the kind of experiment: Cell proliferation assay (Alamar Blue). Particulars: H1341, SCLC, 144 h. It is filed as cell-based. How it is done:
as §2
In general terms: Resazurin is reduced to fluorescent resorufin, in cell work by metabolically active cells.

The test system of another test is HL60-MX1. As to the kind of experiment: Cell proliferation assay (Alamar Blue). It is filed as cell-based. Particulars: HL60-MX1, Leukemia, 144 h. How it is done:
as §2

In another test the test system is acetylation of α-Tubulin. As to the kind of experiment: Western blot of tubulin acetylation in HEL92.1.7 cells. It is filed as cell-based, human. The conditions noted are these: HEL92.1.7, 3 to 48 h, 8 point dose response from 10 μM. How it is done: Cells were harvested and washed twice with cold PBS after the indicated treatments. Cell pellets were lysed in 30μl of lysis buffer (50 mM Tris-HCl, pH 7.4, 150 mM NaCl, 1% Triton X-100, 0.1% SDS, 1 mM EDTA, 1 mM Na3VO4, 1 mM NaF, and protease inhibitor cocktail) for 30 min on ice. Lysates were centrifuged at 12,000 ×g for 20 min at 4°C, and the protein content in the supernatants was determined using the Bradford reagent (Bio-Rad). Equal amount of protein lysate was resolved by SDS-PAGE and transferred onto a nitrocellulose membrane (Bio-Rad). Membranes were blocked with 5% non-fat milk powder in PBS-Tween 20 buffer for 1 h, followed by incubation with primary antibody at 4°C overnight. Membranes were washed in PBST and then incubated with HRP-conjugated anti-goat or mouse anti- IgG (Cell Signalling Technology) antibody and detected using the Millipore ECL Western Blot substrate. β-actin was used as a loading control. Antibodies were obtained from the following sources: Acetyl-α- Tubulin (Cell Signalling Technology, […], 1:500), β-actin (Santa Cruz Biotechnology, sc47778, 1:2000), HRP-conjugated secondary antibodies (Santa Cruz Biotechnology, 1:2000 for β-actin blots, 1:1000 for all others). Blots shown are representative of at least two independent experiments.
On the technique in general: A western blot detects proteins with antibodies after separation by electrophoresis.

A further test concerns CT-26 syngeneic tumors. Kind of test: CT-26 mouse colon cancer syngeneic model. It is filed as in vivo, BALB/c mice. The conditions noted are these: 14 d. The method, then:
For CT-26 syngeneic mouse colon cancer model female BALB/c (6–8 weeks old, Vivo Biotech, India) were used. 1x10^6 CT26 tumor cells in 100 μL of serum-free medium mixed with 1:1 ratio of matrigel were injected s.c. into the right flank of mice. […] During the experiment, body weights were measured 2–3 times a week and tumor volume was measured using callipers every other day in three dimensions. Tumor volume was calculated from the pi-based ellipsoid volume formula π/6*length*width*height. Mice were culled when the tumor volume reached either the ethical limit of 2000 mm^3 or if the tumor was ulcerated. The percentage change in tumor volume from baseline was used to assess the response to treatment. Tumor measurements were performed in a blinded manner throughout the study.

T1 sequence (Q92769 whole entry): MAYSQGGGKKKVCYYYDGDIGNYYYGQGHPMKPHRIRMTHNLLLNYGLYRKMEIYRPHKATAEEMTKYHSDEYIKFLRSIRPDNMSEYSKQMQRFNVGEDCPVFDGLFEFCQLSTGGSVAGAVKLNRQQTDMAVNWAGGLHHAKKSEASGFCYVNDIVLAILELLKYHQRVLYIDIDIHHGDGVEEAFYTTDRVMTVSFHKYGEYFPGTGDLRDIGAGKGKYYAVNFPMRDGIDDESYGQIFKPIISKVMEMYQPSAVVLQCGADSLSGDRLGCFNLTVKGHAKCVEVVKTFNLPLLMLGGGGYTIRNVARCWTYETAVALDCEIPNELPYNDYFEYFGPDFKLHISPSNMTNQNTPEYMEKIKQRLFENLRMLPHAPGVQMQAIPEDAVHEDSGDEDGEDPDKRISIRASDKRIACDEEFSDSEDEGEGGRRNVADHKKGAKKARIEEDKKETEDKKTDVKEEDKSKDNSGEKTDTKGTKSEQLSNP

For orientation: IC50 means the midpoint of a concentration-inhibition curve. By EC50 is commonly meant the concentration at which the effect is half-maximal. A lower EC50 goes with greater potency. One may read the TGI as the reduction of tumour growth relative to the control group. For `O=C(NO)c1ccc(CCCN2CCC(CN[C@H]3C[C@@H]3c3ccccc3)CC2)cc1` (relative stereo) [JBI-097], the IC50 was 3.95 µM against HDAC2; 1.14 µM against HDAC5; 3.58 µM at HDAC7; 3.43 µM on HDAC9; at least 1.1 µM in the test with remaining HDACs. Moreover, the EC50 with Colo-289 was 2.19 µM; in the test with G362, 7.64 µM; in the test on H1341 it was 3.26 µM; in the test with HL60-MX1, 0.034 µM. In addition, the “acetylation of α-Tubulin” value in the test with acetylation of α-Tubulin was “time and concentration dependent increase”. Besides, the TGI in the test on CT-26 syngeneic tumors (JBI-097 20 mg/kg PO in combination with anti-PD-L1 100 μg/animal IP Q4D) stood at 76%; with CT-26 syngeneic tumors (JBI-097 alone, 20 mg/kg PO, 5 days on 2 days off), 50%.

Source of the values: PMC9810167, “Novel dual LSD1/HDAC6 inhibitor for the treatment of cancer” (PLOS ONE, 2023).
